The values below come from PMC10233622, “Structural and functional investigation of a fungal member of carbohydrate esterase family 15 with potential specificity for rare xylans” (Acta Crystallographica. Section D, Structural Biology, 2023).

The assay concerns the target T1, LfCE15C (Lentithecium fluviatile, UniProt A0A6G1IIU9).
T1 construct: gene K458DRAFT_349146; native signal peptide removed; secreted from Pichia pastoris SMD1168H; N-glycosylated at Asn241
Description: nanoDSF thermal shift (Tycho NT.[…] nm). Conditions: 20 mM ligand; 0.1 M sodium phosphate pH 6.5; indirect indication of binding.

Molecules are shown by their SMILES.

T1 sequence (A0A6G1IIU9 entry or part of it): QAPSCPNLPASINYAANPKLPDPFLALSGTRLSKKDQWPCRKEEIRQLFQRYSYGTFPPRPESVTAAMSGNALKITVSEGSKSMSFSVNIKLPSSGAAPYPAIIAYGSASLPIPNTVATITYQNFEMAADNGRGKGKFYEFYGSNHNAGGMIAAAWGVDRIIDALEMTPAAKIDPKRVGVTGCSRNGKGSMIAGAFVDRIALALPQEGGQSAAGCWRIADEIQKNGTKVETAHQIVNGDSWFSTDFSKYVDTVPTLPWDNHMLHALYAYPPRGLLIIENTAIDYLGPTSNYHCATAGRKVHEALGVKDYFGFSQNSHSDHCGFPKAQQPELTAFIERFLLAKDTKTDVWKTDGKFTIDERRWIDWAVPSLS

For `O=C(OCc1ccccc1)[C@H]1OC(O)[C@H](O)[C@@H](O)[C@@H]1O` (stereo partly shown) [BnzGlcA, benzyl glucuronate], the Ti shift result was “A decrease in T i was observed with BnzGlcA”.
